From ChEMBL document CHEMBL5303304, “EUbOPEN Chemogenomics Library - IncuCyte” (2023)

How the values were obtained:
Type in all cases: toxicity, cell-based
U2OS = experiment: Incucyte cell viability with U2OS; details: human, 10 µM, compound concentration 10 uM
HEK-293T = experiment: Incucyte cell viability with HEK293T; details: human, 10 µM, compound concentration 10 uM
Fibroblast = experiment: Incucyte cell viability with human fibroblast; details: 10 µM, compound concentration 10 uM
Further: unitless GR value; below 1 slowed growth and below 0 cell loss.

SMILES | Growth Rate (U2OS; 18 h, replicate number 1) | Growth Rate (U2OS; 24 h, replicate number 1) | Growth Rate (HEK-293T; 0 h, replicate number 1) | Growth Rate (HEK-293T; 0 h, replicate number 2) | Growth Rate (HEK-293T; 12 h, replicate number 2) | Growth Rate (HEK-293T; 18 h, replicate number 1) | Growth Rate (HEK-293T; 18 h, replicate number 2) | Growth Rate (HEK-293T; 24 h, replicate number 2) | Growth Rate (Fibroblast; 0 h, replicate number 1) | Growth Rate (Fibroblast; 0 h, replicate number 2) | Growth Rate (Fibroblast; 6 h, replicate number 1) | Growth Rate (Fibroblast; 6 h, replicate number 2) | Growth Rate (Fibroblast; 12 h, replicate number 2) | Growth Rate (Fibroblast; 18 h, replicate number 2) | Growth Rate (Fibroblast; 24 h, replicate number 2) | Growth Rate (U2OS; 0 h, replicate number 1) | Growth Rate (U2OS; 12 h, replicate number 1) | Growth Rate (Fibroblast; 18 h, replicate number 1) | Growth Rate (Fibroblast; 24 h, replicate number 1) | Growth Rate (U2OS; 6 h, replicate number 1) | also measured
NC(=O)c1cc(-c2ccnc(NC3CCCCC3)c2)nc(N2CCNCC2)c1 | 0.84 | 0.61 | -0.55 | -0.65 | 0.31 | 0.8 | 0.26 | 0.44 | -0.81 | 0.79 | 0.63 | -0.77 | 0.39 | 0.65 | 0.36 |  |  |  |  |  | Growth Rate (U2OS; 18 h, replicate number 2): 0.9; Growth Rate (U2OS; 24 h, replicate number 2): 0.72; Growth Rate (HEK-293T; 12 h, replicate number 1): 0.54; Growth Rate (Fibroblast; 12 h, replicate number 1): -1
CCOC(=O)c1cncn1[C@H](C)c1ccccc1 [ETOMIDATE] | 0.9 | 0.98 |  |  |  |  |  |  | 0.28 | 0.93 |  |  |  |  |  | 0.35 | 0.97 | 0.21 | -0.16 |  | Growth Rate (U2OS; 0 h, replicate number 2): -0.28; Growth Rate (U2OS; 6 h, replicate number 2): 0.83; Growth Rate (U2OS; 18 h, replicate number 2): 0.87; Growth Rate (HEK-293T; 6 h, replicate number 1): 0.68
O=C(Nc1snnc1C(=O)Nc1ccc(N2CCCC2)cc1)c1cncc(C(F)(F)F)c1 |  |  | 0.43 | 0.78 | 0.8 | 0.92 | 0.86 | 0.9 | -1 | -0.64 |  | 0.26 | 0.11 | 0.43 | 0.59 | -1 | -0.58 |  | 0.96 |  | Growth Rate (U2OS; 6 h, replicate number 2): 0.89; Growth Rate (U2OS; 12 h, replicate number 2): 0.81; Growth Rate (HEK-293T; 6 h, replicate number 2): 0.54; Growth Rate (HEK-293T; 12 h, replicate number 1): 0.99; Growth Rate (HEK-293T; 24 h, replicate number 1): 0.91
COc1ccccc1-c1cc(Nc2cccc(CS(N)(=O)=O)c2)ncn1 | 0.22 | 0.46 |  |  | -0.15 | 0.16 | 0.21 | 0.33 |  | -0.71 | 0.43 |  |  | 0.93 | 0.59 |  | 0.51 | 0.61 | 0.52 | 0.81 | Growth Rate (U2OS; 6 h, replicate number 2): 0.46; Growth Rate (U2OS; 12 h, replicate number 2): 0.46; Growth Rate (U2OS; 18 h, replicate number 2): 0.43; Growth Rate (U2OS; 24 h, replicate number 2): 0.49; Growth Rate (HEK-293T; 6 h, replicate number 1): -0.26; Growth Rate (HEK-293T; 6 h, replicate number 2): -0.38; Growth Rate (HEK-293T; 12 h, replicate number 1): -0.07; Growth Rate (HEK-293T; 24 h, replicate number 1): 0.38; Growth Rate (Fibroblast; 12 h, replicate number 1): 0.63
CNc1nc(Nc2ccc(C(=O)N3CCOCC3)cc2OC)ncc1Cl |  |  |  |  |  | 0.99 | 0.96 | 0.96 | -0.99 |  |  | 0.67 | 0.72 | 0.63 | 0.99 |  |  |  |  | -0.99 | Growth Rate (HEK-293T; 6 h, replicate number 1): 0.75; Growth Rate (HEK-293T; 6 h, replicate number 2): 0.81; Growth Rate (HEK-293T; 24 h, replicate number 1): 0.92
O=C(O)c1ccc(-c2c[nH]c3ncc(-c4ccccc4)cc23)cc1C1CCCC1 [GSK-650394] | 0.86 |  | 0.23 | 0.55 |  |  |  |  |  | -0.45 | 0.36 | -0.95 | 0.77 |  |  | 0.01 | 0.79 | 0.91 | 0.38 | 0.39 | Growth Rate (U2OS; 12 h, replicate number 2): 0.98; Growth Rate (U2OS; 18 h, replicate number 2): 0.92; Growth Rate (U2OS; 24 h, replicate number 2): 0.96; Growth Rate (Fibroblast; 12 h, replicate number 1): -1
Cc1ccc2c(NS(=O)(=O)c3ccccc3Cl)cccc2c1Oc1ncccc1-c1ccnc(N[C@H]2CCCNC2)n1.Cl | 0.69 | 0.55 |  |  | 0.52 | 0.5 | 0.6 | 0.55 | -1 |  | 0.69 |  | 0.45 | 0.38 | 0.49 | 0.22 | 0.68 | 0.34 | 0.3 | 0.4 | Growth Rate (U2OS; 0 h, replicate number 2): 0.32; Growth Rate (U2OS; 6 h, replicate number 2): 0.75; Growth Rate (U2OS; 12 h, replicate number 2): 0.62; Growth Rate (U2OS; 18 h, replicate number 2): 0.57; Growth Rate (U2OS; 24 h, replicate number 2): 0.58; Growth Rate (HEK-293T; 6 h, replicate number 1): 0.95; Growth Rate (HEK-293T; 12 h, replicate number 1): 0.33; Growth Rate (HEK-293T; 24 h, replicate number 1): 0.48; Growth Rate (Fibroblast; 12 h, replicate number 1): 0.21
CC(=O)O.NCCCc1c(C(=O)O)[nH]c2ccc(C(=O)Nc3ccccc3)cc12 | 0.92 | 0.93 | 0.19 | 0.53 | 0.96 |  | 0.93 |  | 0.6 |  | 0.95 | 0.33 | 0.82 | 0.71 | 0.77 | 0.53 | 0.87 | 0.95 |  | 0.76 | 
CCC(C)(C)CC[C@H](NC(=O)N1CCOCC1)C(=O)NC1(C#N)CCN(C)CC1 |  | 0.88 | 0.93 | -0.17 | 0.91 |  |  |  |  |  | 0.76 | -0.59 | 0.5 | 0.95 | 0.95 | 0.09 |  |  |  | 1 | Growth Rate (U2OS; 0 h, replicate number 2): -0.03; Growth Rate (U2OS; 12 h, replicate number 2): 0.96
COc1ccc(-n2nc3c4ccccc4[nH]cc-3c2=O)cc1 |  |  | 0.6 |  | 1 |  |  |  |  | 0.74 | -0.1 |  | 0.81 | 0.91 |  | -0.37 | 0.89 |  |  | 0.7 | Growth Rate (U2OS; 0 h, replicate number 2): -0.98; Growth Rate (HEK-293T; 6 h, replicate number 2): 0.53
CC(C)c1nc2c(c3c1[C@H](c1ccc(C(F)(F)F)cc1)OC31CCOCC1)[C@H](O)CC(C)(C)C2 | 0.93 | 0.88 |  | -0.1 |  | 0.41 | 0.84 | 0.94 | -1 |  | -0.78 | -0.98 | -0.47 | -0.05 | 0.1 | -0.17 | 0.82 | -0.17 | 0.08 | 0.38 | Growth Rate (U2OS; 12 h, replicate number 2): 0.84; Growth Rate (HEK-293T; 6 h, replicate number 1): -0.63; Growth Rate (HEK-293T; 12 h, replicate number 1): 0.02; Growth Rate (HEK-293T; 24 h, replicate number 1): 0.62; Growth Rate (Fibroblast; 12 h, replicate number 1): -0.62
